Assay: gradient 5% acetonitrile 3 min, to 50% in 2 min, to 85% in 15 min, held 3 min, 100 µL/min
Conditions: column: Zorbax Extend-C18 2.1 x 50 mm; eluents: water / acetonitrile, 0.1% formic acid
How it was run: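 Pure standards were run in mixtures of ~100 molecules by HPLC coupled to a quadrupole time-of-flight mass spectrometer. The column was a Zorbax Extend-C18 (2.1 × 50 mm, 1.8 μm) at 100 μL/min, with water and acetonitrile each containing 0.1% formic acid, in positive and negative ionization mode. Dead and dwell volumes were 40 μL and 900 μL. Retention time was taken from computationally picked adduct peaks, each manually inspected, with data collected over 3 months.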

Compound	RP-LC retention time [s]
CCOc1cccc(-c2noc(Cn3cnc4c(nnn4-c4ccccc4OC)c3=O)n2)c1	979
CCCNC(=O)c1cc(C)nc2c(C)cc(C)cc12	650
Cc1nc(S(=O)(=O)N2CCC(C(=O)N3CCN(c4ccccc4)CC3)CC2)cn1C	687
CCCn1nc2ccc(S(=O)(=O)N3CCC(C)CC3)cn2c1=O	893
O=S(=O)(Cc1ccccc1)N1CCCCC1c1nc(-c2cccnc2)n[nH]1 (centres undefined)	701
COc1ccc(C(=O)N2CCn3c(nnc3C(C)C)C2)c(OC)n1	588
COc1ccc(C2Cn3nnc(-c4nc(-c5ccccc5Br)no4)c3CO2)cc1 (centres undefined)	1150
CC1=C(C(=O)Nc2cc(Cl)ccc2C(=O)NC(C)c2ccccc2)SCCO1 (centres undefined)	1070
COc1cc(CSc2nc(CC(=O)Nc3nccs3)cs2)cc(OC)c1	819
CN(CC1CCOC1)C(=O)c1ccccc1Cl (centres undefined)	681
c1cc(-c2noc(-c3ccoc3)n2)cc(-c2ccn[nH]2)c1	839
CC(NC(=O)Nc1ccccc1C(F)(F)F)C(=O)N1CCc2ccccc21 (centres undefined)	907
COc1cc(CNC(=O)c2ccc3c(c2)NC(=O)C2CCCCN32)cc(OC)c1OC (centres undefined)	726
O=C(Nc1ccc(N2CCN(c3ccccc3)C2=O)nc1)c1cccnc1	689
Cc1ccc(C)c(NC(=O)Cn2nc3nc(N4CCCC4)ccn3c2=O)c1	687
CC1(C)CCC(NC(=O)[C@@H](N)CCC(=O)O)CC1	654
Cc1cc(C)n(-c2nccnc2SCC(=O)Nc2cccc(Cl)c2C)n1	871
Cc1ccc(-c2nc3ncccn3c2Nc2ccccc2C)cc1	802
O=C(CN1C(=O)C2CCCCN2c2ccc(C(=O)N3CCCC3)cc21)NCC1COCCO1 (centres undefined)	627
O=C(CCc1nnc2c3cc(-c4ccc(F)cc4)nn3ccn12)NCc1ccc(Cl)cc1	822
CCn1cc(S(=O)(=O)Nc2ccc(F)cc2F)c2cccnc21	814
CC1C(=O)NCCN1C(=O)CSc1ccc(Cl)cc1 (centres undefined)	648
Cn1ncc(N2CCC(C(=O)Nc3ccc4oc(-c5ccncc5)nc4c3)C2)cc1=O (centres undefined)	642

Compound	RP-LC retention time [s]
O=C(c1ccc([N+](=O)[O-])o1)N1CCN(Cc2csc(-c3ccccc3)n2)CC1	601
Cc1nccn1C1CN(S(=O)(=O)c2cccc(F)c2)C1	604
Cc1cc(N2CCN(C)CC2)nc2ccc(NC(=O)CCC(=O)NCCc3ccc(Cl)cc3)cc12	581
c1ccc(OCc2nc(-c3ccc(-c4csc(C5CC5)n4)cc3)no2)cc1	1330
COc1ccc(Cl)cc1NC(=O)NC1CCN(c2ccc(F)cc2)C1=O (centres undefined)	899
CS(=O)(=O)N1CCC(C(=O)NCc2cccc(Oc3ccc(F)cc3)c2)CC1	767
Cc1ccc(NC(=O)N2CCc3nc(-c4ccc(Cl)cc4)ncc3C2)cc1C	1160
CC1=C(C(=O)O)N2C(=O)C(NC(=O)[C@H](N)c3ccccc3)[C@H]2SC1 (some centres undefined)	627
CCC1Oc2ccc(Cl)cc2N(CC(=O)N2CCN(Cc3noc4ccccc34)CC2)C1=O (centres undefined)	865
COc1cc2c(cc1OC)[N+]([O-])=C(c1ccccc1)C2=O	1030
COc1ccc(NC(=O)C2CCN(S(=O)(=O)c3c(C)[nH]c(C)c3C(=O)N3CCCC3)CC2)cc1	693
CCOc1ccc(N2CC(c3nnc(NC(=O)Cc4ccc(Cl)cc4)o3)CC2=O)cc1 (centres undefined)	796
COc1ccc(CC(=O)Nc2ccc(Nc3cc(OC)nc(C)n3)cc2)cc1	617
CNC(=O)C1CCCN1C(=O)Nc1ccc(C)cc1 (centres undefined)	640
Cc1cccc(CNC(=O)CCC(=O)N2CCSc3nc(C)cc(C)c32)c1	692
Cc1nc(N2CCCC2)c2c(C(=O)Nc3cccc(Cl)c3)c(C)oc2n1	852
CCOC(=O)c1scc(-c2ccc(C)cc2)c1S(=O)(=O)N1CCN(c2ccccn2)CC1	866
Cc1ccc2c(c1)N(Cc1nc(C3CC3)no1)N=C(C(=O)N1CCC(C)CC1)S2(=O)=O	992
Cc1cccc(C2CCCN2C(=O)c2nn(C)cc2Cl)c1 (centres undefined)	849
CC1(C(=O)NCc2ccccc2)Cn2cnc(C(=O)NCc3ccc(Cl)cc3)c2C(=O)N1C1CC1 (centres undefined)	789
O=C(Nc1nnc(-c2cc(Cl)sc2Cl)o1)c1ccc([N+](=O)[O-])o1	866
Cc1ccc2c(c1)N(C(=O)Cn1cnc3nc4c(cc3c1=O)CC(C)CC4)CCO2 (centres undefined)	888
Cc1ccc(N2CC(c3noc(-c4ccccc4)n3)CC2=O)cc1 (centres undefined)	819

Compound	RP-LC retention time [s]
COc1ccc(N2CCN(c3cc(C(=O)O)c4cc(NS(C)(=O)=O)ccc4n3)CC2)cc1	609
Cc1cnc(-c2ccccc2)n1CCNS(=O)(=O)c1cccc(F)c1	633
Cc1cc(C)cc(C(=O)N2CCCC(C(=O)Nc3ccc(Br)c(C)c3)C2)c1 (centres undefined)	1110
COc1ccc2c(=O)c(Oc3ccccc3F)c(C)oc2c1	888
COc1ccc(NC(=O)C2CCc3sc(C(=O)N(C)C)cc3C2)cc1 (centres undefined)	663
Cc1nnc(N2CCCC(C(=O)NCc3ccc4c(c3)OCO4)C2)c2nn(-c3ccccc3)c(C)c12 (centres undefined)	698
CC1CCN(S(=O)(=O)c2ccc3nc(N4CCN(c5ccccc5)CC4)ccc3c2)CC1	962
O=C1CCCc2cc(S(=O)(=O)N3CCC(C(=O)NC4CCCCCC4)CC3)ccc2N1	769
Cc1ccc(-c2noc(-c3ccc(N4CCN(c5ncccn5)CC4)nc3)n2)cc1	1280
COc1ccccc1NC(=O)N1CCCC1c1nc(-c2ccccc2)no1 (centres undefined)	1010
O=C(CCC1CCN(c2cc(NC3CC3)ncn2)CC1)NCc1cnccn1	564
OCCNCCNCc1ccc(-c2cccc(Cl)c2)o1	568
Cn1ncc2c3ccccc3n(CCCC(=O)N3CCc4ccccc4C3)c2c1=O	931
Cc1cc(C)c(S(=O)(=O)N2CCC3(CC2)NCCN=C3NCc2ccccc2C)c(C)c1	854
CCCC(C)C(=O)NCCc1nc2cccnc2n1C (centres undefined)	593
CC(C)c1noc(-c2ccn3c(CC(=O)N4CCSCC4)nnc3c2)n1	726
CCc1c(C2CCN(C(=O)c3ccc4c(c3)OCO4)CC2)noc1N	696
O=C(NCC1CCN(c2ncccn2)CC1)Nc1ccc2c(c1)OCO2	632
CC1CCN(S(=O)(=O)c2nn(C)cc2C(=O)NCc2ccc3c(c2)OCO3)CC1	832
CCn1ccc2oc(C)c(C(=O)NCc3cc(C)ccc3C)c2c1=O	878
CCc1nncn1C1CCN(S(=O)(=O)c2cc(F)ccc2C)CC1	658
COc1ccccc1-c1nc(-c2ccc(S(=O)(=O)N3CCCCC3)cc2)no1	1220
CCOc1ccccc1NC(=O)NCC(c1cccnc1)c1cn(C)c2ccccc12 (centres undefined)	753

Compound	RP-LC retention time [s]
Cc1ccc(CNC(=O)NCc2c(C)nn(-c3ccccc3)c2-n2cccc2)cc1	972
O=S(=O)(c1cc(F)cc(F)c1)N1CCN(Cc2cccc(F)c2)C2(CCOCC2)C1	958
Cc1cccc(N2C=C(C(=O)N3CCOCC3)S(=O)(=O)c3ccc(F)cc32)c1	793
CCN1CCn2cc(S(=O)(=O)Nc3ccc(Cl)cc3)cc2C1=O	766
O=S(=O)(Cc1ccccc1Cl)N1CCC(CN2CCCCCC2)CC1	675
Cc1cc(OCC(=O)N[C@@H](CC(C)C)C(=O)O)c2c3c(c(=O)oc2c1)CCC3	822
COc1ccc(-c2noc(-c3nn(-c4ccc(C)c(C)c4)ccc3=O)n2)cc1	923
CCOc1cccc(C2c3[nH]c4ccccc4c3CCN2C(=O)C2CCC2)c1 (centres undefined)	1200
CCc1nn(CC(=O)N2CCN(c3ccccn3)CC2)c(=O)c2cc3sccc3n12	612
CCOc1ccc(CNC(=O)C2CCN(Cc3cn(CC)c4ccc(OC)cc34)CC2)cc1	723
Cc1ccc(C)c(N2CCN(c3ccnc(SCC(=O)NCc4ccc(Cl)cc4)n3)CC2)c1	942
N#Cc1ccc(NC(=O)Cc2cn3cc(F)ccc3n2)cc1	601
O=C(Nc1nc(-c2ccccc2)cs1)c1ccc(COc2c(F)c(F)c(F)c(F)c2F)o1	1220
COc1ccc(NC(=O)c2noc3c2CCCCC3)cc1	989
Cn1nc(CO)c2c1CCN(C(=O)c1ccc3[nH]ccc3c1)C2	591
Cc1cc(S(=O)(=O)N2CCC(n3cnnc3C3CC3)CC2)ccc1Cl	784
COc1cccc(Cn2nc3ccc(S(=O)(=O)N4CCOCC4)cn3c2=O)c1	783
COc1cc(-c2noc(Cn3c(=O)n(-c4ccccc4)c(=O)c4sccc43)n2)cc(OC)c1OC	868
O=c1[nH]c(-c2ccccc2)nc2sc(-c3ccccc3)cc12	980
O=C(c1ccc2nsnc2c1)N(Cc1ccsc1)C1CC1	861

Source: the METLIN SMRT retention time set (Domingo-Almenara et al. 2019)
